Data from patent publication US7741344B2, “Process for preparing purified S-BEL and R-BEL and compositions thereof” (Washington University in St. Louis, priority 2002, dated 2010).

Tests used:
A-10 smooth muscle cells = experiment: AVP-induced [3H]-arachidonic acid liberation from A-10 cells; assay type: cell-based, rat; conditions: 1 μM AVP, FIG. 5
Protocol: Quantification of [^3H]-Arachidonic Acid Liberation from A-10 Phospholipids—Rat aortic smooth muscle A-10 cells, cultured in 60 mm dishes (2.5×10^5 cells/dish), were radiolabeled with 0.5 μCi [^3H]-arachidonic acid per dish as previously described (29). Cells were washed once with DMEM containing 0.25% fatty acid free bovine serum albumin followed by two washes with DMEM alone. Cells were then incubated with the indicated concentrations of (R)-, (S)-, rac-BEL, or ethanol vehicle (0.1% final concentration) in DMEM for 20 min. This media was removed and the cells were then incubated with DMEM containing 10% heat-inactivated fetal bovine serum in the absence or presence of 1 μM AVP. In some tests, PMA (1 μM) or DOG (10 μM) was added to the medium containing AVP. After 5 mm, 1 ml of this medium was removed, lipids were extracted into 2 ml of chloroform/methanol/acetic acid (25:24:1 v/v) (38), and the remaining cells were scraped into 1 ml of deionized water prior to lipid extraction as described above. The chloroform layer was evaporated under nitrogen and the extracted lipids were separated by thin layer chromatography (petroleum ether/ethyl ether/glacial acetic acid 70:30:1). Regions containing fatty acids and phospholipids were scraped into vials and radioactivity was quantified by liquid scintillation spectrometry.
A-10 cells (2.5×10^5 cells/dish) were radiolabeled with [^3H]-arachidonic acid (0.5 μCi/dish) for 20 hrs. After washing to remove unincorporated [^3H]-arachidonic acid, cells were then incubated with either 1 μM or 5 μM (R)-BEL, (S)-BEL, rac-BEL, or ethanol vehicle (0.1%) in DMEM for 20 mm. This media was removed and the cells were then incubated with 3 ml of DMEM containing 10% heat-inactivated fetal bovine serum with or without 1 μM AVP. After 5 min, 1 ml of this medium was removed and lipids were extracted into 2 ml of chloroform/methanol/acetic acid (25:24:1). The remaining cells were scraped into 1 ml of deionized water and total lipids were extracted as described above. The chloroform layer was evaporated under nitrogen and the extracted lipids were separated by TLC. Regions containing fatty acids and phospholipids were scraped into vials and radioactivity was quantified by liquid scintillation spectrometry. Results are representative of four separate tests.
A-10 cells were radiolabeled with [^3H]-arachidonic acid, washed, and pre-incubated with 5 μM (S)-BEL or ethanol vehicle alone for 15 min as described in FIG. 5. DMEM media containing 10% heat-inactivated fetal bovine serum with or without 1 μM AVP was then added to the cells. After 5 min at 37° C., [^3H]-arachidonic acid released into the media and remaining within the cells (free and incorporated into phospholipids) was extracted into chloroform, separated by TLC, and quantified by liquid scintillation spectrometry as described in “Experimental Procedures”. Results are representative of three separate tests.

[1] = system: purified recombinant iPLA2β; experiment: Assay of iPLA2β inhibition by BEL (radiolabeled phospholipid substrate); assay type: biochemical; conditions: FIG. 4A
Protocol: Recombinant iPLA2 Enzymes—Recombinant iPLA2β was expressed and purified from Sf9 cells as previously described (35).
Assay of iPLA2β and iPLA2γ Inhibition by BEL—Purified recombinant iPLA2β or Sf9 cell membranes containing recombinant iPLA2γ were incubated with (R) BEL, (S) BEL, racemic BEL, or ethanol vehicle for 3 mm at 22° C. in the presence of 100 mM Tris-HCl (pH 7.0) and 4 mM EGTA (for iPLA2β) or 100 mM Tris-acetate (pH 8.0) and 4 mM EGTA (for iPLA2γ). The concentration of BEL used for each test ranged from 0 to 16 μM. L-α-1-palmitoyl-2-[1^14C]-arachidonyl-phosphatidylcholine (5 μM final concentration) or L-α-1-palmitoyl-2-[1-^14C]-oleoyl-phosphatidylcholine (5 μM final concentration) in ethanol was then added to each sample and incubated at 37° C. for 2 min. Reactions were terminated by extraction of radiolabeled products into butanol, and reactants and products were separated by thin layer chromatography using Whatman LK6D 60 Å Silica Gel plates with petroleum ether/ethyl ether/acetic acid (70:30:1) as the mobile phase. Regions corresponding to the migration of a fatty acid standard visualized by iodine staining were scraped into vials and radioactivity was quantified by scintillation spectrometry.
Panel A—Purified recombinant iPLA2β (1 μg/ml) in 100 mM Tris-HCl, pH 7.3 containing 1 mM EGTA was preincubated at 22° C. for 3 mm in the presence of the indicated concentrations of (R)-, (S)-, or rac-BEL or ethanol vehicle alone (1% final concentration). Radiolabeled substrate (L-α-1-palmitoyl-2-[1-^14C]-arachidonyl-phosphatidylcholine, 5 μM final concentration) was then added to each reaction and incubated at 37° C. for 2 min. Reactions were terminated by extraction of remaining substrate and products into butanol, separation by TLC, and quantification of released radiolabeled fatty acid by scintillation spectrometry as described in Experimental Procedures.

recombinant human iPLA2γ = molecular target: T1, recombinant human iPLA2γ (Homo sapiens, UniProt Q9NP80); conditions: previous experiments (24, 31); cited from earlier work
T1 construct: Recombinant full-length iPLA2γ was expressed in Sf9 cells; made in house; host or cells: Sf9 cells (washed membrane fraction, not purified)
T1 sequence (Q9NP80 1-782): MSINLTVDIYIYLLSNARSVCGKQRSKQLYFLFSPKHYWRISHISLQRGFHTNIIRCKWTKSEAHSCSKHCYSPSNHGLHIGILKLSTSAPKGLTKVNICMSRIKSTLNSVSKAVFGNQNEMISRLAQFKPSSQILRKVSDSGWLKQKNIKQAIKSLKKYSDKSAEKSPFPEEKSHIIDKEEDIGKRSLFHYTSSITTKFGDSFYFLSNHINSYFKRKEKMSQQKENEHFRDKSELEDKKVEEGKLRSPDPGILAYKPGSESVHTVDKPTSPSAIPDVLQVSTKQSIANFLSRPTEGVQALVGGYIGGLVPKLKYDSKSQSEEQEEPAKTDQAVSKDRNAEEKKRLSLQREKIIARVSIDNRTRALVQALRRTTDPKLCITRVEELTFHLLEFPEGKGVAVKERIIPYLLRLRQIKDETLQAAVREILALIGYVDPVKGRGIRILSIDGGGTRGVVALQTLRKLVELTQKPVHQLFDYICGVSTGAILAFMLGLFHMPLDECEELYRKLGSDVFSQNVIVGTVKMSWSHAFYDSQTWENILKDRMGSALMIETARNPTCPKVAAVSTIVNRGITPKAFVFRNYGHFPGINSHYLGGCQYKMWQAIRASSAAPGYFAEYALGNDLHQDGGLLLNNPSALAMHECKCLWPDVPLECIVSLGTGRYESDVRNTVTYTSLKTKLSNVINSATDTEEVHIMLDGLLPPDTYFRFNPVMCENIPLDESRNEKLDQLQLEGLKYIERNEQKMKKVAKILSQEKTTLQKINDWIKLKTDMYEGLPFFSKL

P388D1 macrophages = conditions: up to 5 μM BEL; (15); cited from earlier work

Compound | inhibition of AVP-induced AA release (A-10 smooth muscle cells; 5 μM inhibitor, 20 min pretreatment) | inhibitory potency on iPLA2β relative to the enantiomers [1] | AVP-induced increase in non-esterified [3H]-arachidonic acid (in words) (A-10 smooth muscle cells; 1 and 5 μM inhibitor) | IC50 (recombinant human iPLA2γ) [µM] | levels of diacylglycerol or phosphatidic acid formed upon stimulation with zymosan (P388D1 macrophages)
O=C1O/C(=C/Br)CC[C@@H]1c1cccc2ccccc12 [(R)-BEL, (R)(E)-6-(bromomethylene)-3-(1-naphthalenyl)-2H-tetrahydropyran-2-one] | about 10% |  |  |  | 
O=C1OC(=CBr)CCC1c1cccc2ccccc12 (racemic) [rac-BEL, Racemic (E)-6-(bromomethylene)-3-(1-naphthalenyl)-2H-tetrahydropyran-2-one] |  | intermediate of that of (R)-BEL and (S)-BEL | significantly reduced | ~3 | does not significantly effect
